# Laboratory results reported in PubChem BioAssay (NCI).
#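 Tested at 5 concentrations; 48 h exposure; 96-well plates; endpoints linearly interpolated, else capped at highest concentration. GI50 is the concentration that inhibits growth by half. TGI: total growth inhibition.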
# Columns and labels:
# Assay in all cases: DTP human tumour cell line panel, 48 h
# [1] = tested on: RPMI-8226 leukemia
# [2] = tested on: SK-OV-3 ovarian
# [3] = tested on: MDA-MB-435
# [4] = tested on: HS 578T breast
# [5] = tested on: MCF7 breast
# [6] = tested on: PC-3 prostate
# [7] = tested on: SR leukemia
# [8] = tested on: LOX IMVI melanoma
# [9] = tested on: BT-549 breast
# [10] = tested on: A549 NSCLC
# [11] = tested on: SK-MEL-5 melanoma
# [12] = tested on: HL-60(TB) leukemia
# [13] = tested on: HCC-2998 colon
# [14] = tested on: SK-MEL-2 melanoma
# [15] = tested on: UACC-257 melanoma
# [16] = tested on: OVCAR-5 ovarian
# [17] = tested on: SF-295 CNS
# [18] = tested on: NCI-H460 lung
# [19] = tested on: NCI-H23 lung
# [20] = tested on: IGROV1 ovarian
# [21] = tested on: T-47D breast
# [22] = tested on: HCT-15 colon
# [23] = tested on: KM12 colon
# [24] = tested on: TK-10 renal
# [25] = tested on: HCT-116 colon
# [26] = tested on: SW-620 colon
# [27] = tested on: MOLT-4 leukemia
# [28] = tested on: A498 renal
# [29] = tested on: SNB-19 CNS
# [30] = tested on: 786-0 renal
# [31] = tested on: K-562 leukemia
# [32] = tested on: OVCAR-8 ovarian
# [33] = tested on: COLO 205 colon
# [34] = tested on: M14 melanoma
# [35] = tested on: NCI-H226 lung
# [36] = tested on: NCI-H522 lung
# [37] = tested on: SK-MEL-28 melanoma
# [38] = tested on: SNB-75 CNS
# [39] = tested on: CAKI-1 renal
# [40] = tested on: SF-268 CNS
# [41] = tested on: SF-539 CNS
# [42] = tested on: HT29 colon
# [43] = tested on: EKVX NSCLC
# [44] = tested on: UO-31 renal
# [45] = tested on: CCRF-CEM leukemia
# [46] = tested on: UACC-62 melanoma
# [47] = tested on: HOP-92 NSCLC
# [48] = tested on: ACHN renal
# [49] = tested on: OVCAR-3 ovarian
# [50] = tested on: NCI/ADR-RES ovarian
# [51] = tested on: MALME-3M melanoma
# [52] = tested on: DU-145 prostate
# [53] = tested on: MDA-MB-231 breast
# [54] = tested on: OVCAR-4 ovarian
# [55] = tested on: U251 CNS
# [56] = tested on: RXF 393 renal
# [57] = tested on: HOP-62 NSCLC
# [58] = tested on: SN12C renal
smiles,measurement,setting,value
O=C(OC[C@H]1O[C@H](OC(=O)c2cc(O)c(O)c(OC(=O)c3cc(O)c(O)c(O)c3)c2)[C@H](OC(=O)c2cc(O)c(O)c(OC(=O)c3cc(O)c(O)c(O)c3)c2)[C@@H](OC(=O)c2cc(O)c(O)c(OC(=O)c3cc(O)c(O)c(O)c3)c2)[C@@H]1OC(=O)c1cc(O)c(O)c(OC(=O)c2cc(O)c(O)c(O)c2)c1)c1cc(O)c(O)c(OC(=O)c2cc(O)c(O)c(O)c2)c1,GI50,[1],7.35 µM
same,TGI,[1],> 25 µM
same,GI50,[2],2.25 µM
same,TGI,[2],> 25 µM
same,GI50,[3],1.5 µM
same,TGI,[3],7.89 µM
same,GI50,[4],10.3 µM
same,TGI,[4],> 25 µM
same,GI50,[5],5.21 µM
same,TGI,[5],11.1 µM
same,GI50,[6],2.33 µM
same,TGI,[6],> 25 µM
same,GI50,[7],1.86 µM
same,TGI,[7],> 25 µM
same,GI50,[8],1.24 µM
same,TGI,[8],> 25 µM
same,GI50,[9],6.77 µM
same,TGI,[9],> 25 µM
same,GI50,[10],1.4 µM
same,TGI,[10],> 25 µM
same,GI50,[11],2.98 µM
same,TGI,[11],13.1 µM
same,GI50,[12],7.53 µM
same,TGI,[12],23.5 µM
same,GI50,[13],2.52 µM
same,TGI,[13],> 25 µM
same,GI50,[14],9.02 µM
same,TGI,[14],> 25 µM
same,GI50,[15],13.4 µM
same,TGI,[15],> 25 µM
same,GI50,[16],4.95 µM
same,TGI,[16],> 25 µM
same,GI50,[17],0.941 µM
same,TGI,[17],> 25 µM
same,GI50,[18],1.09 µM
same,TGI,[18],> 25 µM
same,GI50,[19],1.56 µM
same,TGI,[19],> 25 µM
same,GI50,[20],3.69 µM
same,TGI,[20],> 25 µM
same,GI50,[21],2.85 µM
same,TGI,[21],16.6 µM
same,GI50,[22],6.2 µM
same,TGI,[22],> 25 µM
same,GI50,[23],1.67 µM
same,TGI,[23],> 25 µM
same,GI50,[24],7.66 µM
same,TGI,[24],> 25 µM
same,GI50,[25],1.57 µM
same,TGI,[25],6.98 µM
same,GI50,[26],5.48 µM
same,TGI,[26],> 25 µM
same,GI50,[27],4.32 µM
same,TGI,[27],> 25 µM
same,GI50,[28],> 25 µM
same,TGI,[28],> 25 µM
same,GI50,[29],2.57 µM
same,TGI,[29],> 25 µM
same,GI50,[30],4.89 µM
same,TGI,[30],20.2 µM
same,GI50,[31],9.63 µM
same,TGI,[31],> 25 µM
same,GI50,[32],1.91 µM
same,TGI,[32],> 25 µM
same,GI50,[33],8.17 µM
same,TGI,[33],> 25 µM
same,GI50,[34],5.01 µM
same,TGI,[34],> 25 µM
same,GI50,[35],3.23 µM
same,TGI,[35],18 µM
same,GI50,[36],1.96 µM
same,TGI,[36],7.68 µM
same,GI50,[37],12.8 µM
same,TGI,[37],> 25 µM
same,GI50,[38],2.37 µM
same,TGI,[38],> 25 µM
same,GI50,[39],1.39 µM
same,TGI,[39],> 25 µM
same,GI50,[40],2.18 µM
same,TGI,[40],> 25 µM
same,GI50,[41],5.56 µM
same,TGI,[41],> 25 µM
same,GI50,[42],3.86 µM
same,TGI,[42],9.22 µM
same,GI50,[43],5.2 µM
same,TGI,[43],> 25 µM
same,GI50,[44],2.61 µM
same,TGI,[44],> 25 µM
same,GI50,[45],3.23 µM
same,TGI,[45],> 25 µM
same,GI50,[46],0.985 µM
same,TGI,[46],> 25 µM
same,GI50,[47],10.6 µM
same,TGI,[47],> 25 µM
same,GI50,[48],6.42 µM
same,TGI,[48],> 25 µM
same,GI50,[49],4.68 µM
same,TGI,[49],22.1 µM
same,GI50,[50],1.3 µM
same,TGI,[50],18.9 µM
same,GI50,[51],7.42 µM
same,TGI,[51],> 25 µM
same,GI50,[52],3.57 µM
same,TGI,[52],> 25 µM
same,GI50,[53],0.898 µM
same,TGI,[53],> 25 µM
same,GI50,[54],4.67 µM
same,TGI,[54],18.3 µM
same,GI50,[55],1.9 µM
same,TGI,[55],> 25 µM
same,GI50,[56],1.2 µM
same,TGI,[56],7.48 µM
same,GI50,[57],1.78 µM
same,TGI,[57],> 25 µM
same,GI50,[58],4.2 µM
same,TGI,[58],> 25 µM
